Our source for the IC50 values is patent publication US8779142B2, “Azabicyclo compound and salt thereof” (Taiho Pharmaceutical Co., Ltd., priority 2009, dated 2014).

The test system of assay [1] is SK-BR-3 cells. Put plainly: Measurement of cell growth inhibition (crystal violet staining method). The class given is cell-based. Conditions: Homo sapiens.
For assay [2], the target named is human HSP90 alpha protein (HSP90 N-terminal protein, amino acids 2-236) (Homo sapiens (Human), UniProt P07900). Put plainly: Measurement of HSP90-binding activity (AlphaScreen competitive assay, biotin-labeled geldanamycin). Conditions: concentration inhibiting binding of biotin-labeled geldanamycin (40 nM) to purified HSP90 to 50% of control; read-out: HSP-binding activity IC50. (Bead proximity is the source of the signal in Alpha formats.)

[3] abbreviates: breast cancer SK-BR-3 cells, 72 hr culture with test substance.

For orientation: IC50 means the point on the concentration scale where inhibition reaches its midpoint.

In the case of `CC(C)c1nn(-c2ccc(C(N)=O)c(NCC(C)(C)C)c2)c2nccc(-c3cnc4ccccc4c3)c12` [Example 25, 4-{3-Isopropyl-4-(quinolin-3-yl)-1H-pyrazolo[3,4-b]pyridin-1-yl}-2-(neopentylamino)benzamide], the IC50 in assay [1] (setting [3]) amounted to 70 nM; in assay [2], 1270 nM.

As to `NC(=O)c1ccc(-n2nc(C(F)(F)F)c3c(-n4cnc(-c5cccnc5)c4)ccnc32)c(NC2CCC2)c1` [Example 182, 3-(Cyclobutylamino)-4-{4-(4-(pyridin-3-yl)-1H-imidazol-1-yl)-3-(trifluoromethyl)-1H-pyrazolo[3,4-b]pyridin-1-yl}benzamide], the IC50 in assay [1] (setting [3]) was 130 nM; in assay [2], 200 nM.

Regarding `Cc1cc(-n2nc(C(C)C)c3c(-c4cnc5ccccc5c4)ccnc32)ccc1C(N)=O` [Example 81, 4-{3-Isopropyl-4-(quinolin-3-yl)-1H-pyrazolo[3,4-b]pyridin-1-yl}-2-methylbenzamide], the IC50 in assay [1] (setting [3]) was found to be 630 nM; in assay [2] it was 1030 nM.

As to `CC(C)c1nn(-c2ccc(C(N)=O)c(NCC(F)F)c2)c2nccc(-n3cnc(-c4cnn(C)c4)c3)c12` [Example 113, 2-(2,2-Difluoroethylamino)-4-{3-isopropyl-4-(4-(1-methyl-1H-pyrazol-4-yl)-1H-imidazol-1-yl)-1H-pyrazolo[3,4-b]pyridin-1-yl}benzamide], the IC50 in assay [1] (setting [3]) is 70 nM; in assay [2], 260 nM.

In the case of `CCNc1cc(-n2nc(C(C)C)c3c(-n4cnc(-c5cn[nH]c5)c4)ccnc32)ccc1C(N)=O` [Example 144, 4-{4-(4-(1H-Pyrazol-4-yl)-1H-imidazol-1-yl)-3-isopropyl-1H-pyrazolo[3,4-b]pyridin-1-yl}-2-(ethylamino)benzamide], the IC50 came out at 110 nM in assay [1] (setting [3]) and 420 nM in assay [2].

In the case of `CC(C)c1nn(-c2ccc(C(N)=O)cc2Cl)c2nccc(-n3cnc(-c4cnn(C)c4)c3)c12` [Example 99, 3-Chloro-4-{3-isopropyl-4-(4-(1-methyl-1H-pyrazol-4-yl)-1H-imidazol-1-yl)-1H-pyrazolo[3,4-b]pyridin-1-yl}benzamide], the 50% inhibitory concentration (IC50) in assay [1] (setting [3]) was 690 nM; in assay [2], 520 nM.

Regarding `CC(C)c1nn(-c2ccc(C(N)=O)c(NCCN3CCOCC3)c2)c2nccc(-c3cnc4ccccc4c3)c12` [Example 31, 4-{3-Isopropyl-4-(quinolin-3-yl)-1H-pyrazolo[3,4-b]pyridin-1-yl}-2-(2-morpholinoethylamino)benzamide], the IC50 in assay [1] (setting [3]) amounted to 100 nM; in assay [2] it was 330 nM.

Turning to `CC(C)c1nn(-c2ccc(C(N)=O)c(N[C@H]3CC[C@H](O)CC3)c2)c2nccc(-c3cnc4c(ccn4C)c3)c12` [Example 14, 2-(Trans-4-hydroxycyclohexylamino)-4-{3-isopropyl-4-(1-methyl-1H-pyrrolo[2,3-b]pyridin-5-yl)-1H-pyrazolo[3,4-b]pyridin-1-yl}benzamide], the IC50 in assay [1] (setting [3]) came out at 180 nM; in assay [2], 690 nM.

`CC(C)c1nn(-c2ccc(C(N)=O)c(NCC(F)(F)F)c2)c2nccc(-n3cnc(-c4cnn(C)c4)c3)c12` [Example 114, 4-{3-Isopropyl-4-(4-(1-methyl-1H-pyrazol-4-yl)-1H-imidazol-1-yl)-1H-pyrazolo[3,4-b]pyridin-1-yl}-2-(2,2,2-trifluoroethylamino)benzamide]: the IC50 in assay [1] (setting [3]) came to 180 nM; in assay [2] it was 490 nM.

Consider `COc1cncc(-c2ccnc3c2c(C(C)C)nn3-c2ccc(C(N)=O)c(N[C@H]3CC[C@H](O)CC3)c2)c1` [Example 11, 2-(Trans-4-hydroxycyclohexylamino)-4-{3-isopropyl-4-(5-methoxypyridin-3-yl)-1H-pyrazolo[3,4-b]pyridin-1-yl}benzamide], for which the results for the IC50 in assay [1] (setting [3]) and in assay [2] were 160 nM and 550 nM, respectively.

In the case of `NC(=O)c1ccc(-n2nc(C(F)(F)F)c3c(-n4cnc(-c5cccnc5)c4)ccnc32)c(N)c1` [Example 177, 3-Amino-4-{4-(4-(pyridin-3-yl)-1H-imidazol-1-yl)-3-(trifluoromethyl)-1H-pyrazolo[3,4-b]pyridin-1-yl}benzamide], the figures for the 50% inhibitory concentration (IC50) in assay [1] (setting [3]) and in assay [2] were 390 nM and 270 nM, respectively.

With `Cn1cc(-c2cn(-c3ccnc4c3c(C(F)(F)F)nn4-c3ccc(C(N)=O)cc3NCC(F)F)cn2)cn1` [Example 167, 3-(2,2-Difluoroethylamino)-4-{4-(4-(1-methyl-1H-pyrazol-4-yl)-1H-imidazol-1-yl)-3-(trifluoromethyl)-1H-pyrazolo[3,4-b]pyridin-1-yl}benzamide], the IC50 amounted to 80 nM in assay [1] (setting [3]) and 100 nM in assay [2].

For `CC(C)c1nn(-c2ccc(C(N)=O)cc2NCC(F)F)c2nccc(-n3cnc(-c4cnn(C)c4)c3)c12` [Example 123, 3-(2,2-Difluoroethylamino)4-{3-isopropyl-4-(4-(1-methyl-1H-pyrazol-4-yl)-1H-imidazol-1-yl)-1H-pyrazolo[3,4-b]pyridin-1-yl}benzamide], the IC50 stood at 120 nM in assay [1] (setting [3]) and 190 nM in assay [2].

Regarding `CC(C)c1nn(-c2ccc(C(N)=O)c(NC3CCC(O)CC3)c2)c2nccc(-n3cnc(-c4cnn(CCOCc5ccccc5)c4)c3)c12` (centres unmarked) [Example 94, 4-{4-(4-(1-(Benzyloxyethyl)-1H-pyrazol-4-yl)-1H-imidazol-1-yl)-3-isopropyl-1H-pyrazolo[3,4-b]pyridin-1-yl}-2-(4-hydroxycyclohexylamino)benzamide], the IC50 in assay [1] (setting [3]) came out at 200 nM; in assay [2], 470 nM.

For `Cn1cc(-c2cn(-c3ccnc4c3c(C(F)(F)F)nn4-c3ccc(C(N)=O)cc3NC3CCCC3)cn2)cn1` [Example 166, 3-(Cyclopentylamino)-4-{4-(4-(1-methyl-1H-pyrazol-4-yl)-1H-imidazol-1-yl)-3-(trifluoromethyl)-1H-pyrazolo[3,4-b]pyridin-1-yl}benzamide], the IC50 in assay [1] (setting [3]) was determined as 110 nM; in assay [2] it was 140 nM.

Turning to `CC(C)c1nn(-c2ccc(C(N)=O)c(N)c2)c2nccc(-n3cnc(-c4cnn(C)c4)c3)c12` [Example 106, 2-Amino-4-{3-isopropyl-4-(4-(1-methyl-1H-pyrazol-4-yl)-1H-imidazol-1-yl)-1H-pyrazolo[3,4-b]pyridin-1-yl}benzamide], the IC50 is 650 nM in assay [1] (setting [3]) and 340 nM in assay [2].

For `CCc1cn(-c2ccc(C(N)=O)c(NC3CCN(C)CC3)c2)c2nccc(-c3cnc4ccccc4c3)c12` [Example 71, 4-{3-Ethyl-4-(quinolin-3-yl)-1H-pyrrolo[2,3-b]pyridin-1-yl}-2-(1-methylpiperidin-4-ylamino)benzamide], the 50% inhibitory concentration (IC50) came to 100 nM in assay [1] (setting [3]) and 250 nM in assay [2].

For the compound `COCCNc1cc(C(N)=O)ccc1-n1nc(C(F)(F)F)c2c(-n3cnc(-c4cnn(C)c4)c3)ccnc21` [Example 168, 3-(2-Methoxyethylamino)-4-{4-(4-(1-methyl-1H-pyrazol-4-yl)-1H-imidazol-1-yl)-3-(trifluoromethyl)-1H-pyrazolo[3,4-b]pyridin-1-yl}benzamide], the figures for the concentration for half-maximal inhibition (IC50) in assay [1] (setting [3]) and in assay [2] were 60 nM and 70 nM, respectively.

In the case of `NCC(=O)O[C@H]1CC[C@H](Nc2cc(-n3cc(C(F)(F)F)c4c(-c5cnc6ccccc6c5)ccnc43)ccc2C(N)=O)CC1` [Example 44, Trans-4-{2-carbamoyl-5-{4-(quinolin-3-yl)-3-(trifluoromethyl)-1H-pyrrolo[2,3-b]pyridin-1-yl}phenylamino}cyclohexyl-2-aminoacetate dimethanesulfonate], the IC50 in assay [1] (SK-BR-3, 72 h) came out at 10 nM; in assay [2], 130 nM.
